Data as given in patent US9315475B2 (MERCK SHARP & DOHME CORP., priority 2011, dated 2016).

The compounds below were run against T1, wildtype HIV-1 protease (Human immunodeficiency virus type 1 group M subtype B, UniProt P04585) (assay: Assay for inhibition of microbial expressed HIV protease (Pepcleav)). Details: Pepcleav (nM).
T1 construct: the wildtype HIV-1 protease (which was expressed in Escherichia coli); made in house; host or cells: Escherichia coli
Type: biochemical
Procedure: Assay for Inhibition of Microbial Expressed HIV Protease (“Pepcleav”)
Studies of the inhibition of the wildtype HIV-1 protease (which was expressed in Escherichia coli) were carried out with a peptide substrate [Val-Ser-Gln-Asn-(βnaphthyl)Ala-Pro-Ile-Val (SEQ ID NO:1)]. The inhibitor is first preincubated with the HIV-1 protease (wild type) enzyme in assay buffer (50 mM sodium acetate, pH 5.5, 100 mM NaCl, and 0.1% BSA) for 30 minutes at room temperature. Substrate is added to 400 micromolar in a total volume of 20 microliters containing 20 picomolar HIV-1 protease (final) and the reaction is incubated for 1 hour at 30° C. The reaction is quenched with the addition of formic acid and indinavir to 0.012% and 150 nM final concentrations, respectively. The product formation is determined after separation of product and substrate on a Zorbax Eclipse XDB-C 18 column connected to an API 4000 mass spectrometer (Applied Biosystems) with multiple reaction monitoring (transitions were 644.5/428.9 and 615.4/422.2 (M1/M3) for product and indinavir respectively). The extent of inhibition of the reaction is determined from the peak area of the products.
`COC(=O)N[C@H](C(=O)Nc1ccccc1CC[C@@H]1CN[C@H](COC(=O)N[C@H]2CO[C@H]3OCC[C@H]32)CO1)C(c1ccccc1)c1ccccc1` [Example 13, N-(2-{2-[(2R,5S)-5-({[(3R,3aS,6aR)-hexahydrofuro[2,3-b]furan-3-ylcarbamoyl]oxy}methyl)morpholin-2-yl]ethyl}phenyl)-Nα-(methoxycarbonyl)-β-phenyl-L-phenylalaninamide] was tested, and the IC50 was 110 nM.

Same assay, conditions: Pepcleav (nM), wild type HIV-1 protease expressed in E. coli, peptide substrate, pH 5.5; mean of at least two independent experiments
`COC(=O)N[C@H](C(=O)Nc1ccccc1CC[C@@H]1CN[C@H](CNC(=O)Oc2ccccc2)CO1)C(c1ccccc1)c1ccccc1` [Example 51, Nα-(methoxycarbonyl)-N-(2-{2-[(2R,5R)-5-{[(phenoxycarbonyl)amino]methyl}morpholin-2-yl]ethyl}phenyl)-β-phenyl-L-phenylalaninamide] was tested, and the IC50 was 38 nM.

Same assay, conditions: wild type HIV-1 protease expressed in E. coli, peptide substrate, pH 5.5; mean of at least two independent experiments; read-out: Pepcleav
`COC(=O)N[C@H](C(=O)Nc1c(CC[C@@H]2CN[C@H](COC(=O)NCC(F)(F)F)CO2)cc[nH]c1=O)C(c1ccccc1)c1ccccc1` [Example 39, Nα-(methoxycarbonyl)-N-(2-oxo-4-{2-[(2R,5S)-5-({[(2,2,2-trifluoroethyl)carbamoyl]oxy}methyl)morpholin-2-yl]ethyl}-1,2-dihydropyridin-3-yl)-β-phenyl-L-phenylalaninamide] was tested, and the IC50 was 2.3 nM. `N[C@@H](Cc1ccccc1C1CC1)C(=O)Nc1cncc(F)c1CC[C@@H]1CN[C@H](COC(=O)NCC(F)(F)F)CO1` [Example 189, 2-cyclopropyl-N-(5-fluoro-4-{2-[(2R,5S)-5-({[(2,2,2-trifluoroethyl)carbamoyl]oxy}methyl)morpholin-2-yl]ethyl}pyridin-3-yl)-L-phenylalaninamide] gave an IC50 of 1730 nM. `COC(=O)N[C@H](C(=O)Nc1c(CC[C@@H]2CN[C@H](COC(=O)NCc3ccc(F)cc3)CO2)cc[nH]c1=O)C(c1ccccc1)c1ccccc1` [Example 38, N-(4-{2-[(2R,5S)-5-({[(4-fluorobenzyl)carbamoyl]oxy}methyl)morpholin-2-yl]ethyl}-2-oxo-1,2-dihydropyridin-3-yl)-Nα-(methoxycarbonyl)-β-phenyl-L-phenylalaninamide] gave an IC50 of 0.6 nM. Work on `O=C(C[C@H](c1ccccc1)c1ccncc1)Nc1cccc(F)c1CC[C@@H]1CN[C@H](COC(=O)NCC(F)(F)F)CO1` [Example 162, {(3S,6R)-6-[2-(2-fluoro-6-{[(3R)-3-phenyl-3-pyridin-4-ylpropanoyl]amino}phenyl)ethyl]morpholin-3-yl}methyl (2,2,2-trifluoroethyl)carbamate] yielded an IC50 of 510 nM. In the case of `COC(=O)N[C@H](C(=O)Nc1ccccc1CC[C@@H]1CN[C@H](CNC(=O)c2cc3ccccc3[nH]2)CO1)C(c1ccccc1)c1ccccc1` [Example 56, methyl N-[(1S)-1-benzhydryl-2-[[2-[2-[(2R,5R)-5-[(1H-indole-2-carbonylamino)methyl]morpholin-2-yl]ethyl]phenyl]amino]-2-oxo-ethyl]carbamate], the IC50 is reported as 34 nM. `COC(=O)N[C@H](C(=O)Nc1ccccc1CC[C@@H]1CN[C@H](CNC(=O)c2c(C)cccc2C)CO1)C(c1ccccc1)c1ccccc1` [Example 57, methyl N-[(1S)-1-benzhydryl-2-[[2-[2-[(2R,5R)-5-[[(2,6-dimethylbenzoyl)amino]methyl]morpholin-2-yl]ethyl]phenyl]amino]-2-oxo-ethyl]carbamate] gave an IC50 of 50 nM. `COC(=O)N[C@H](C(=O)Nc1ccccc1CC[C@@H]1CN[C@H](CNS(=O)(=O)Cc2ccccc2)CO1)C(c1ccccc1)c1ccccc1` [Example 50, N-(2-{2-[(2R,5R)-5-{[(benzylsulfonyl)amino]methyl}morpholin-2-yl]ethyl}phenyl)-Nα-(methoxycarbonyl)-β-phenyl-L-phenylalaninamide] showed an IC50 of 49 nM. `N[C@@H](Cc1cccc2ccccc12)C(=O)Nc1cncc(F)c1CC[C@@H]1CN[C@H](COC(=O)NCc2ccc(F)cc2)CO1` [Example 191, {(3S,6R)-6-[2-(3-{[(2S)-2-amino-3-naphthalen-1-ylpropanoyl]amino}-5-fluoropyridin-4-yl)ethyl]morpholin-3-yl}methyl (4-fluorobenzyl)carbamate (non-preferred name)] showed an IC50 of 130 nM. In the case of `COC(=O)N[C@H](C(=O)Nc1ccccc1CC[C@@H]1CN[C@H](COC(=O)NCc2cccnc2)CO1)C(c1ccccc1)c1ccccc1` [Example 20, methyl N-[(1S)-1-benzhydryl-2-oxo-2-[[2-[2-[(2R,5S)-5-(3-pyridylmethylcarbamoyloxymethyl)morpholin-2-yl]ethyl]phenyl]amino]ethyl]carbamate], the IC50 is reported as 78 nM. `COC(=O)N[C@H](C(=O)Nc1ccccc1CC[C@@H]1CN[C@H](CNC(=O)c2cc3ncccn3n2)CO1)C(c1ccccc1)c1ccccc1` [Example 59, methyl N-[(1S)-1-benzhydryl-2-oxo-2-[[2-[2-[(2R,5R)-5-[(pyrazolo[1,5-a]pyrimidine-2-carbonylamino)methyl]morpholin-2-yl]ethyl]phenyl]amino]ethyl] carbamate] gave an IC50 of 71 nM. With `Cc1cccc(NC(=O)[C@@H](N)C(c2ccc(F)cc2)c2ccc(F)cc2)c1CC[C@@H]1CN[C@H](COC(=O)NCC(F)(F)F)CO1` [Example 226, 4-fluoro-β-(4-fluorophenyl)-N-(3-methyl-2-{2-[(2R,5S)-5-({[(2,2,2-trifluoro-ethyl)carbamoyl]oxy}methyl)morpholin-2-yl]ethyl}phenyl)-L-phenylalaninamide] the IC50 was 360 nM. `COC(=O)N[C@H](C(=O)Nc1ccccc1CC[C@@H]1CN[C@H](CCc2ccccc2N)CO1)C(c1ccccc1)c1ccccc1` [Example 72, methyl N-[(1S)-1-[[2-[2-[(2R,5R)-5-[2-(2-aminophenyl)ethyl]morpholin-2-yl]ethyl]phenyl]carbamoyl]-2,2-diphenyl-ethyl]carbamate] showed an IC50 of 14 nM. `N[C@H](C(=O)Nc1ccc(F)cc1CC[C@@H]1CN[C@H](COC(=O)NCC(F)F)CO1)C(c1ccccc1)c1ccccc1` [Example 192, N-(2-{2-[(2R,5S)-5-({[(2,2-difluoroethyl)carbamoyl]oxy}methyl)morpholin-2-yl]ethyl}-4-fluorophenyl)-β-phenyl-L-phenylalaninamide] gave an IC50 of 130 nM. `O=C(C[C@H](CC1CC1)c1ccccc1)Nc1cccc(F)c1CC[C@@H]1CN[C@H](COC(=O)NCC(F)(F)F)CO1` [Example 163, {(3S,6R)-6-[2-(2-{[(3S)-4-cyclopropyl-3-phenyl-butanoyl]amino}-6-fluoro-phenyl)ethyl]morpholin-3-yl}methyl (2,2,2-trifluoroethyl)carbamate] was tested, and the IC50 was 1100 nM. With `N[C@H](C(=O)Nc1ccc(F)cc1CC[C@@H]1CN[C@H](COC(=O)NCC(F)(F)F)CO1)C(c1ccccc1)c1ccccc1` [Example 196, N-(4-fluoro-2-{2-[(2R,5S)-5-({[(2,2,2-trifluoroethyl)carbamoyl]oxy}methyl)morpholin-2-yl]ethyl}phenyl)-β-phenyl-L-phenylalaninamide] the IC50 was 79 nM. For `COC(=O)N[C@H](C(=O)Nc1ccccc1CC[C@@H]1CN[C@H](COC(=O)N2CCCC2)CO1)C(c1ccccc1)c1ccccc1` [Example 27, [(3S,6R)-6-[2-[2-[[(2S)-2-(methoxycarbonylamino)-3,3-diphenyl-propanoyl]amino]phenyl]ethyl]morpholin-3-yl]methyl pyrrolidine-1-carboxylate], the IC50 was 180 nM. `COC(=O)N[C@H](C(=O)Nc1ccccc1CC[C@@H]1CN[C@H](COC(=O)NC2CCc3ccccc32)CO1)C(c1ccccc1)c1ccccc1` (stereo partly drawn) [Example 15, N-(2-{2-[(2R,5S)-5-{[(2,3-dihydro-1H-inden-1-ylcarbamoyl)oxy]methyl}morpholin-2-yl]ethyl}phenyl)-Nα-(methoxycarbonyl)-β-phenyl-L-phenylalaninamide] showed an IC50 of 4.1 nM. For `COC(=O)N[C@H](C(=O)Nc1ccccc1CC[C@@H]1CN[C@H](COC(=O)NCc2cncs2)CO1)C(c1ccccc1)c1ccccc1` [Example 19, methyl N-[(1S)-1-benzhydryl-2-oxo-2-[[2-[2-[(2R,5S)-5-(thiazol-5-ylmethylcarbamoyloxymethyl)morpholin-2-yl]ethyl]phenyl]amino]ethyl]carbamate], the IC50 was 48 nM. Work on `N[C@H](C(=O)Nc1cccc(C(F)(F)F)c1CC[C@@H]1CN[C@H](COC(=O)NCC(F)(F)F)CO1)C(c1ccccc1)c1ccccc1` [Example 234, β-phenyl-N-[2-{2-[(2R,5S)-5-({[(2,2,2-trifluoroethyl)carbamoyl]oxy}methyl)morpholin-2-yl]ethyl}-3-(trifluoromethyl)phenyl]-L-phenylalaninamide] yielded an IC50 of 110 nM. For `COC(=O)N[C@H](C(=O)Nc1ccccc1CC[C@@H]1CN[C@H](CNC(=O)c2[nH]c(=O)ccc2F)CO1)C(c1ccccc1)c1ccccc1` [Example 58, methyl N-[(1S)-1-benzhydryl-2-[[2-[2-[(2R,5R)-5-[[(3-fluoro-6-oxo-1H-pyridine-2-carbonyl)amino]methyl]morpholin-4-ium-2-yl]ethyl]phenyl]amino]-2-oxo-ethyl]carbamate], the IC50 was 66 nM. Work on `N[C@H](C(=O)Nc1cccc(F)c1CC[C@@H]1CN[C@H](COC(=O)NCC(F)(F)F)CO1)[C@H](c1ccccc1)c1ccc(Oc2ccccc2)cc1` [Example 227, (βR)-N-(3-fluoro-2-{2-[(2R,5S)-5-( {[(2,2,2-trifluoroethyl)carbamoyl]oxy}methyl)morpholin-2-yl]ethyl}phenyl)-O,β-diphenyl-L-tyrosinamide] yielded an IC50 of 340 nM.
